These results are taken from US8642074B2, “Thermosensitive liposomes containing therapeutic agents” (Celsion Corporation, priority 2007, dated 2014).

“And” between values parts separate entries of the source, which are not always exact repeats. Identical values can stand only once.

The test system of data set [1] is Lewis lung carcinoma cells. Nature of the data set: In vivo efficacy in mice bearing Lewis lung tumors with local heating. The arrangement: species or system Kunming mice. The conditions noted are these: day 18, 75 mg/m^2 on days 8, 12, 16. The method, then: Twelve female Kunming mice, between 7-9 weeks old and weighing 20±2 g were used. Lewis lung carcinoma cells (3×10^6 cells in 0.1 ml of PBS.) were implanted subcutaneously into the right lower leg of each mouse. Tumors were allowed to grow to 4-6 mm in diameter before starting treatment.
The 12 mice were stratified by tumor volume and randomized to 3 treatment groups: saline, free docetaxel and the thermosensitive liposomes of the invention.
Docetaxel-containing thermosensitive liposomes of the invention were prepared as described above and stored at 2-8° C. until use. Treated animals were injected with 75 mg/m^2 docetaxel either in a thermosensitive liposome of the invention or as non-liposomal Taxotere prepared according to the manufacturer's specifications.
The treatment was started on day 8 after the tumor implantation and was repeated on day 12 and day 16. Mice in all treatment groups were anesthetized with an IP injection of pentobarbital (80 mg/kg); treatment was administered in a volume of 0.2 ml via tail vein injection. This dose of anesthesia provided adequate immobilization for the 1-h treatment period.
Except for the saline group, all treatment groups were given an equivalent dose of 75 mg/m^2 of docetaxel. Immediately after injection, the mice were positioned in specially designed holders that allowed the isolated leg tumor to be placed in a water bath for 30 minutes. The water bath temperature was set at 43° C. This water bath temperature has been calibrated previously to give tumor temperatures of 42° C. All the mice were sacrificed at day 18. The tumors were surgically excised and the tumor weights were recorded. The tumor growth inhibition was calculated as follows: Tumor Inhibition Ratio=(Vs−Vx)/Vs
Where: Vs is tumor volume of saline group, Vx is the tumor volume of treatment group.

The nature of data set [2]: In vivo drug distribution in heated and non-heated leg muscle, liposome vs free docetaxel (Example 2). The arrangement: species or system BALB/c mice. On the procedure: Six female BALB/c mice (20±2 g) were randomly separated into 3 groups. The mice were anesthetized and put on a Styrofoam board with a hole in it. One leg of the mouse was pulled through the hole to other side of the board. The board was floated in a water bath to heat the leg at 43.5±0.5° C. for 15 min. The mice then received a tail vein injection of either liposomes at a dose of 10 mg/kg or the same dose of Taxotere (control: prepared according to the manufacturers specifications) The one leg from each mouse was then heated for 30 min. after injection and then sacrificed. Muscles from the heated and non-heated legs were excised. Drug was extracted from a fixed weight of muscle tissue using the extraction method described above. The extracted drug was analyzed by HPLC.

For the compound `CC(=O)O[C@@]12CO[C@@H]1C[C@H](O)[C@@]1(C)C(=O)[C@H](O)C3=C(C)[C@@H](OC(=O)[C@H](O)[C@@H](NC(=O)OC(C)(C)C)c4ccccc4)C[C@@](O)([C@@H](OC(=O)c4ccccc4)[C@H]21)C3(C)C` [Docetaxel, docetaxel], in data set [1] (group average, tumor heated 30 min, in g (unit assumed)), the “Tumor Weight Average” value is 1.002. Besides, the “Tumor Weight” value in data set [1] (individual mice, tumor heated 30 min at 42° C., listed as Docetaxel Injection, in g (unit assumed)) is 0.500 and 0.118 and 1.380 and 2.010. The compound further returned an Inhibition % in data set [1] (vs saline group, tumor heated 30 min) of 77.91%. Further, in data set [2] (Example 2, 10 mg/kg tail vein), the “drug concentration in heated compared with non heated tissue” value is reported as “the same”. Besides, the “Adrug/Aref % (heated leg)” value in data set [2] (muscle, leg heated at 43.5±0.5° C., 10 mg/kg tail vein, HPLC, Groups 1-3, 10 mg/kg) is 5.46% and 6.53% and 5.48%. In data set [2] (muscle, non-heated leg, 10 mg/kg tail vein, HPLC, Groups 1-3, 10 mg/kg), the “Adrug/Aref % (non-heated leg)” value was 5.48% and 6.29% and 5.32%.
